Patent US20250215021A1, “SYSTEMS AND METHODS UTILIZING THERANOSTIC AGENTS FOR BPCT AND BNCT FOR TARGETED CANCER TREATMENT” (University of Virginia Patent Foundation, priority 2022, published 2025)

Tested on: MCF-10A epithelial cells
Assay: Cell uptake in MCF-10A (normal cell control)
Type: cell-based
Settings: all concentrations tested
Experimental: Referring now to FIGS. 6A-6B, after confirming the structure and purity of the compound, further biological evaluation was performed. Preferential cancer cell uptake was evaluated in human breast cancer cells MCF-7 compared with MCF-10A epithelial cells. […] The cancer cell uptake was also confirmed by confocal microscopy. The concentration and constitutional stability of the compound in cancer cells was established by lysing the MCF-7 incubated with 5 μM of compound for 4 hrs. […] Inherent toxicity of the compound to both normal and cancer cells was evaluated using HMCD and 1-amino-1-carbadodecaborate as controls.

With `CC1(C)C(/C=C/C2=C(Cl)C(=C/C=C3/N(CCCCCC(=O)O)c4ccccc4C3(C)C)/CCC2)=[N+](CCCCS(=O)(=O)[O-])c2ccccc21` [parent HMCD] the “uptake in MCF-10A cells” value was “no or poor uptake”.
